In one test the test system is Staphylococcus aureus. Briefly: Antibacterial activity against Staphylococcus aureus by agar-diffusion test. The test is classed as functional. A general note: A growth-free zone around the sample is the usual read-out of agar diffusion tests.
The next test relates to Bacillus subtilis. The test is described as follows: Antibacterial activity against Bacillus subtilis by agar-diffusion test. The test is classed as functional.

The term MIC denotes the lowest concentration that inhibits growth of the organism. A lower MIC goes with a more susceptible organism. For `COc1cc2cc[n+](C)c(Cc3ccc(Oc4cc(Cc5c6cc(OC)c(OC)cc6cc[n+]5C)ccc4OC)cc3)c2cc1OC` [PHAEANTHARINE], the MIC against Staphylococcus aureus was 86 µg/mL; in the test on Bacillus subtilis it was 74 µg/mL.

The record behind these values is ChEMBL document CHEMBL1151416, “Revised structure of phaeantharine” (1983).
